Data: ChEMBL document CHEMBL4346695, “Thiophenol-formaldehyde triazole causes apoptosis induction in ovary cancer cells and prevents tumor growth formation in mice model” (2019)
The source made the active and inactive calls.

Legend:
[1] = species: Homo sapiens; experiment: Growth inhibition of human ES2 cells incubated for 48 hrs by MTT assay; format: functional
[2] = system: Caov-3 cell line; experiment: Growth inhibition of human Caov3 cells incubated for 48 hrs by MTT assay; format: functional, cell-based
[3] = system: Caov-4; experiment: Growth inhibition of human Caov4 cells incubated for 48 hrs by MTT assay; format: functional, cell-based

Measured: growth inhibition (GI)

FC(F)(F)c1ccc(-n2cc(COCc3ccccc3S)nn2)cc1
active: all assays above

Fc1ccc(-n2cc(COCc3ccccc3S)nn2)c(F)c1
active: all assays above

Sc1ccccc1COCc1cn(-c2c(Cl)cc(Cl)cc2Cl)nn1
active: all assays above

FC(F)(F)c1ccccc1-n1cc(COCc2ccccc2S)nn1
active: all assays above
